# According to the NIST ThermoML archive (doi:10.1016/j.fluid.2015.12.007):
# ± gives the expanded uncertainty stated by the source.
# Test: xn = mol fraction of the nth substance listed
# Conditions: 101 kPa, Liquid; for speed of sound: Sing-around technique in a fixed-path interferometer; for mass density: Vibrating tube method
structure (smiles),measurement,setting,value
CCCCn1cc[n+](C)c1.COS(=O)(=O)[O-] [1-butyl-3-methylimidazolium methyl sulfate] + CC(O)CO,speed of sound,"293.15 K, x1 = 0.0574",1541.9 ± 1.4 m/s
same,speed of sound,"293.15 K, x1 = 0.1155",1554.6 ± 1.4 m/s
same,speed of sound,"293.15 K, x1 = 0.2102",1573.6 ± 1.6 m/s
same,speed of sound,"293.15 K, x1 = 0.3133",1591.4 ± 1.8 m/s
same,speed of sound,"293.15 K, x1 = 0.4151",1602.8 ± 2 m/s
same,speed of sound,"293.15 K, x1 = 0.5038",1613.5 ± 2.1 m/s
same,speed of sound,"293.15 K, x1 = 0.6026",1626 ± 2.4 m/s
same,speed of sound,"293.15 K, x1 = 0.6996",1636.8 ± 2.6 m/s
same,speed of sound,"293.15 K, x1 = 0.8095",1649.4 ± 2.8 m/s
same,speed of sound,"293.15 K, x1 = 0.9003",1660.2 ± 3 m/s
same,mass density,"293.15 K, x1 = 0.0574",1061.11 ± 0.17 kg/m3
same,mass density,"293.15 K, x1 = 0.1155",1081.09 ± 0.22 kg/m3
same,mass density,"293.15 K, x1 = 0.2102",1107.07 ± 0.33 kg/m3
same,mass density,"293.15 K, x1 = 0.3133",1130.01 ± 0.5 kg/m3
same,mass density,"293.15 K, x1 = 0.4151",1148.5 ± 0.72 kg/m3
same,mass density,"293.15 K, x1 = 0.5038",1162.16 ± 0.94 kg/m3
same,mass density,"293.15 K, x1 = 0.6026",1174.98 ± 1.2 kg/m3
same,mass density,"293.15 K, x1 = 0.6996",1185.85 ± 1.5 kg/m3
same,mass density,"293.15 K, x1 = 0.8095",1196.11 ± 2 kg/m3
same,mass density,"293.15 K, x1 = 0.9003",1204.12 ± 2.4 kg/m3
same,speed of sound,"298.15 K, x1 = 0.0574",1528.2 ± 1.4 m/s
same,speed of sound,"298.15 K, x1 = 0.1155",1541.1 ± 1.4 m/s
same,speed of sound,"298.15 K, x1 = 0.2102",1560.2 ± 1.6 m/s
same,speed of sound,"298.15 K, x1 = 0.3133",1578.4 ± 1.8 m/s
same,speed of sound,"298.15 K, x1 = 0.4151",1589.9 ± 2 m/s
same,speed of sound,"298.15 K, x1 = 0.5038",1600.8 ± 2.1 m/s
same,speed of sound,"298.15 K, x1 = 0.6026",1613.1 ± 2.4 m/s
same,speed of sound,"298.15 K, x1 = 0.6996",1624.2 ± 2.6 m/s
same,speed of sound,"298.15 K, x1 = 0.8095",1636.8 ± 2.8 m/s
same,speed of sound,"298.15 K, x1 = 0.9003",1647.5 ± 3 m/s
same,mass density,"298.15 K, x1 = 0.0574",1057.45 ± 0.17 kg/m3
same,mass density,"298.15 K, x1 = 0.1155",1077.45 ± 0.21 kg/m3
same,mass density,"298.15 K, x1 = 0.2102",1103.5 ± 0.33 kg/m3
same,mass density,"298.15 K, x1 = 0.3133",1126.47 ± 0.5 kg/m3
same,mass density,"298.15 K, x1 = 0.4151",1145.03 ± 0.71 kg/m3
same,mass density,"298.15 K, x1 = 0.5038",1158.71 ± 0.93 kg/m3
same,mass density,"298.15 K, x1 = 0.6026",1171.59 ± 1.2 kg/m3
same,mass density,"298.15 K, x1 = 0.6996",1182.44 ± 1.5 kg/m3
same,mass density,"298.15 K, x1 = 0.8095",1192.74 ± 2 kg/m3
same,mass density,"298.15 K, x1 = 0.9003",1200.82 ± 2.3 kg/m3
same,speed of sound,"303.15 K, x1 = 0.0574",1514.5 ± 1.4 m/s
same,speed of sound,"303.15 K, x1 = 0.1155",1527.5 ± 1.4 m/s
same,speed of sound,"303.15 K, x1 = 0.2102",1546.9 ± 1.6 m/s
same,speed of sound,"303.15 K, x1 = 0.3133",1565.2 ± 1.8 m/s
same,speed of sound,"303.15 K, x1 = 0.4151",1577.1 ± 2 m/s
same,speed of sound,"303.15 K, x1 = 0.5038",1588.2 ± 2.1 m/s
same,speed of sound,"303.15 K, x1 = 0.6026",1600.5 ± 2.4 m/s
same,speed of sound,"303.15 K, x1 = 0.6996",1611.8 ± 2.6 m/s
same,speed of sound,"303.15 K, x1 = 0.8095",1624.5 ± 2.8 m/s
same,speed of sound,"303.15 K, x1 = 0.9003",1635 ± 3 m/s
same,mass density,"303.15 K, x1 = 0.0574",1053.78 ± 0.17 kg/m3
same,mass density,"303.15 K, x1 = 0.1155",1073.81 ± 0.21 kg/m3
same,mass density,"303.15 K, x1 = 0.2102",1099.9 ± 0.33 kg/m3
same,mass density,"303.15 K, x1 = 0.3133",1122.94 ± 0.5 kg/m3
same,mass density,"303.15 K, x1 = 0.4151",1141.57 ± 0.71 kg/m3
same,mass density,"303.15 K, x1 = 0.5038",1155.27 ± 0.92 kg/m3
same,mass density,"303.15 K, x1 = 0.6026",1168.22 ± 1.2 kg/m3
same,mass density,"303.15 K, x1 = 0.6996",1179.05 ± 1.5 kg/m3
same,mass density,"303.15 K, x1 = 0.8095",1189.38 ± 1.9 kg/m3
same,mass density,"303.15 K, x1 = 0.9003",1197.47 ± 2.3 kg/m3
same,speed of sound,"308.15 K, x1 = 0.0574",1500.8 ± 1.4 m/s
same,speed of sound,"308.15 K, x1 = 0.1155",1513.9 ± 1.4 m/s
same,speed of sound,"308.15 K, x1 = 0.2102",1533.6 ± 1.6 m/s
same,speed of sound,"308.15 K, x1 = 0.3133",1552.2 ± 1.8 m/s
same,speed of sound,"308.15 K, x1 = 0.4151",1564.4 ± 2 m/s
same,speed of sound,"308.15 K, x1 = 0.5038",1575.8 ± 2.1 m/s
same,speed of sound,"308.15 K, x1 = 0.6026",1588.2 ± 2.4 m/s
same,speed of sound,"308.15 K, x1 = 0.6996",1599.6 ± 2.6 m/s
same,speed of sound,"308.15 K, x1 = 0.8095",1612.3 ± 2.8 m/s
same,speed of sound,"308.15 K, x1 = 0.9003",1622.9 ± 3 m/s
same,mass density,"308.15 K, x1 = 0.0574",1050.08 ± 0.16 kg/m3
same,mass density,"308.15 K, x1 = 0.1155",1070.14 ± 0.21 kg/m3
same,mass density,"308.15 K, x1 = 0.2102",1096.3 ± 0.32 kg/m3
same,mass density,"308.15 K, x1 = 0.3133",1119.41 ± 0.49 kg/m3
same,mass density,"308.15 K, x1 = 0.4151",1138.1 ± 0.7 kg/m3
same,mass density,"308.15 K, x1 = 0.5038",1151.85 ± 0.92 kg/m3
same,mass density,"308.15 K, x1 = 0.6026",1164.85 ± 1.2 kg/m3
same,mass density,"308.15 K, x1 = 0.6996",1175.66 ± 1.5 kg/m3
same,mass density,"308.15 K, x1 = 0.8095",1186.03 ± 1.9 kg/m3
same,mass density,"308.15 K, x1 = 0.9003",1194.14 ± 2.3 kg/m3
same,speed of sound,"313.15 K, x1 = 0.0574",1487.1 ± 1.4 m/s
same,speed of sound,"313.15 K, x1 = 0.1155",1500.4 ± 1.4 m/s
same,speed of sound,"313.15 K, x1 = 0.2102",1520.3 ± 1.6 m/s
same,speed of sound,"313.15 K, x1 = 0.3133",1539.2 ± 1.8 m/s
same,speed of sound,"313.15 K, x1 = 0.4151",1551.8 ± 2 m/s
same,speed of sound,"313.15 K, x1 = 0.5038",1563.4 ± 2.1 m/s
same,speed of sound,"313.15 K, x1 = 0.6026",1576 ± 2.4 m/s
same,speed of sound,"313.15 K, x1 = 0.6996",1587.6 ± 2.6 m/s
same,speed of sound,"313.15 K, x1 = 0.8095",1600.3 ± 2.8 m/s
same,speed of sound,"313.15 K, x1 = 0.9003",1610.9 ± 3 m/s
same,mass density,"313.15 K, x1 = 0.0574",1046.36 ± 0.16 kg/m3
same,mass density,"313.15 K, x1 = 0.1155",1066.46 ± 0.21 kg/m3
same,mass density,"313.15 K, x1 = 0.2102",1092.68 ± 0.32 kg/m3
same,mass density,"313.15 K, x1 = 0.3133",1115.88 ± 0.49 kg/m3
same,mass density,"313.15 K, x1 = 0.4151",1134.64 ± 0.7 kg/m3
same,mass density,"313.15 K, x1 = 0.5038",1148.44 ± 0.91 kg/m3
same,mass density,"313.15 K, x1 = 0.6026",1161.48 ± 1.2 kg/m3
same,mass density,"313.15 K, x1 = 0.6996",1172.29 ± 1.5 kg/m3
same,mass density,"313.15 K, x1 = 0.8095",1182.71 ± 1.9 kg/m3
same,mass density,"313.15 K, x1 = 0.9003",1190.84 ± 2.3 kg/m3
same,speed of sound,"318.15 K, x1 = 0.0574",1473.6 ± 1.4 m/s
same,speed of sound,"318.15 K, x1 = 0.1155",1487.1 ± 1.4 m/s
same,speed of sound,"318.15 K, x1 = 0.2102",1507.4 ± 1.6 m/s
same,speed of sound,"318.15 K, x1 = 0.3133",1526.4 ± 1.8 m/s
same,speed of sound,"318.15 K, x1 = 0.4151",1539.2 ± 2 m/s
same,speed of sound,"318.15 K, x1 = 0.5038",1551.5 ± 2.1 m/s
same,speed of sound,"318.15 K, x1 = 0.6026",1563.8 ± 2.4 m/s
same,speed of sound,"318.15 K, x1 = 0.6996",1576 ± 2.6 m/s
same,speed of sound,"318.15 K, x1 = 0.8095",1588.5 ± 2.8 m/s
same,speed of sound,"318.15 K, x1 = 0.9003",1599 ± 3 m/s
same,mass density,"318.15 K, x1 = 0.0574",1042.62 ± 0.16 kg/m3
same,mass density,"318.15 K, x1 = 0.1155",1062.78 ± 0.21 kg/m3
same,mass density,"318.15 K, x1 = 0.2102",1089.06 ± 0.32 kg/m3
same,mass density,"318.15 K, x1 = 0.3133",1112.34 ± 0.48 kg/m3
same,mass density,"318.15 K, x1 = 0.4151",1131.18 ± 0.69 kg/m3
same,mass density,"318.15 K, x1 = 0.5038",1145.05 ± 0.91 kg/m3
same,mass density,"318.15 K, x1 = 0.6026",1158.11 ± 1.2 kg/m3
same,mass density,"318.15 K, x1 = 0.6996",1168.92 ± 1.5 kg/m3
same,mass density,"318.15 K, x1 = 0.8095",1179.39 ± 1.9 kg/m3
same,mass density,"318.15 K, x1 = 0.9003",1187.56 ± 2.3 kg/m3
